Assay results as given in PubChem BioAssay (NCI).
Where “and” joins values, the source holds several entries; their conditions need not be identical. Equal values may be shown once.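 1) Cells in 96-well plates. 2) Compound, 48 h, 5 concentrations. 3) Linear interpolation between surrounding doses. 4) Unreached endpoint = highest concentration. GI50 marks 50% less growth. Definition used: TGI = concentration required for complete inhibition of growth.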

How the values were obtained:
Assay in all cases: NCI tumour cell line growth inhibition, 48 h
NCI-H460 lung = system: NCI-H460 lung
HL-60(TB) leukemia = system: HL-60(TB) leukemia
MOLT-4 leukemia = system: MOLT-4 leukemia
MDA-MB-231 breast = system: MDA-MB-231 breast
IGROV1 ovarian = system: IGROV1 ovarian
A549 NSCLC = system: A549 NSCLC
RXF 393 renal = system: RXF 393 renal
HS 578T breast = system: HS 578T breast
CCRF-CEM leukemia = system: CCRF-CEM leukemia
DU-145 prostate = system: DU-145 prostate

Compound | TGI (NCI-H460 lung) | TGI (HL-60(TB) leukemia) | TGI (MOLT-4 leukemia) | TGI (MDA-MB-231 breast) | TGI (IGROV1 ovarian) | TGI (A549 NSCLC) | TGI (RXF 393 renal) | TGI (HS 578T breast) | TGI (CCRF-CEM leukemia) | TGI (DU-145 prostate) | GI50 (HL-60(TB) leukemia) | GI50 (MOLT-4 leukemia) | GI50 (IGROV1 ovarian) | GI50 (A549 NSCLC) | GI50 (HS 578T breast) | GI50 (CCRF-CEM leukemia) | GI50 (MDA-MB-231 breast)
Cn1c(N)nc(-c2ccc(Cl)cc2)c1SSc1c(-c2ccc(Cl)cc2)nc(N)n1C | 15.3 µM | 2.92 µM | > 100 µM | 2.88 µM | 9.21 µM | 27.2 µM | 5.47 µM | > 100 µM | 5.05 µM | 25.4 µM |  |  |  |  |  |  | 
CCOC1CC(C)N(C(=O)c2ccccc2)O1 (stereo not drawn) | > 100 µM | > 100 µM | > 100 µM | > 100 µM | > 100 µM | > 100 µM | > 100 µM | > 100 µM | > 100 µM | > 100 µM |  |  |  |  |  |  | 
CN(C)c1ccc(C=C2C(=O)NC(=S)NC2=O)c2ccccc12 | > 100 µM | > 100 µM | > 100 µM | > 100 µM | > 100 µM | > 100 µM | 76.4 µM | 71.8 µM | > 100 µM | > 100 µM |  |  |  |  |  |  | 
Cc1nc2sccn2c1/C=C1/C(=O)Nc2cccc(Cl)c21 | > 100 µM | > 100 µM | > 100 µM | > 100 µM | > 100 µM | > 100 µM | > 100 µM | > 100 µM | > 100 µM | > 100 µM |  |  |  |  |  |  | 
NS(=O)(=O)c1ccc(/C=C/c2ccc(O)cc2)cc1 | > 100 µM | > 100 µM | > 100 µM | 60.7 µM | 84.9 µM | 55.4 µM | > 100 µM | > 100 µM | > 100 µM | > 100 µM | 4.35 µM | 22.6 µM | 20.2 µM | 13.9 µM | 28.9 µM | 4.5 µM | 
O=C(c1ccccc1)N1C(=S)N(c2ccccn2)C(=Nc2ccccc2)C1=Nc1ccccc1 | > 70.6 µM | 14.1 µM | > 54.8 µM | > 71.9 µM | > 64.1 µM | > 100 µM | 25.9 µM | > 61.8 µM | > 24.7 µM | > 100 µM |  |  |  |  |  |  | 
CCOP(=O)(OCC)OC1c2[nH]cc(C(=O)OCc3ccccc3)c2-c2cc(C(=O)OC)[nH]c2C1OC (stereo not drawn) | > 100 µM | > 100 µM | > 100 µM | 37 µM | 31.6 µM | > 61.2 µM | > 56.3 µM | > 100 µM | > 100 µM | 89.8 µM |  |  |  |  |  |  | 
CC(=O)CC1=C(OC(C)C)C2(OCCO2)C1O (stereo not drawn) | > 100 µM | > 100 µM | > 100 µM | > 100 µM | > 100 µM | > 100 µM | > 100 µM | > 100 µM | > 100 µM | > 100 µM |  |  |  |  |  |  | 
CCOC(=O)NN(C(=O)OCC)c1c(C)cc(C)cc1C | > 100 µM | > 100 µM | > 100 µM | > 100 µM | > 100 µM | > 100 µM | > 100 µM | > 100 µM | > 100 µM | > 100 µM |  |  |  |  |  |  | 
COc1ccc2nc3cccc([N+](=O)[O-])c3c(NCCCO)c2c1 | 0.00233 µM and 0.0153 µM |  | 0.036 µM and 0.0847 µM |  | 0.0313 µM and 0.29 µM | 0.0223 µM and 0.102 µM | 0.00255 µM |  | 0.0572 µM and 0.133 µM | 15.6 µM | 0.00233 µM | 0.00328 µM and 0.0181 µM |  |  | 0.00445 µM and 0.033 µM | 0.00583 µM and 0.0153 µM | 2.26 µM
COc1ccc(-c2oc3c(OC)c(OC)cc(O)c3c(=O)c2OC)cc1 | > 100 µM | > 100 µM | > 100 µM | > 100 µM | > 100 µM | > 100 µM | > 100 µM | > 100 µM | > 100 µM | > 100 µM |  |  |  |  |  |  | 
COC(=O)/C=C1/OC(c2ccc(OC)cc2)=C(Cl)C1=O | 42.9 µM | 12.2 µM | 12.3 µM | 26.2 µM | 34.1 µM | 56.4 µM | 31.7 µM | 84 µM | 17.7 µM | 36.6 µM |  |  |  |  |  |  | 
CC(C)Oc1c(-c2ccc(F)cc2)c(O)c2c3c1oc(=O)n3C=CC2C (stereo not drawn) | 29.1 µM | 31 µM | 39.2 µM | 28.7 µM | 29.2 µM | 28 µM | 27.3 µM | 52.8 µM | 29.8 µM | 51.6 µM |  |  |  |  |  |  | 
O=C(c1cc2c(c3ccccc13)NC1(CCCCC1)N=C2C(F)(F)F)C(F)(F)F | 10.9 µM | 9.89 µM | 14.5 µM | 9.83 µM | 17.3 µM | 16.3 µM | 12.7 µM | 29.3 µM | 13.1 µM | 19.6 µM |  |  |  |  |  |  | 
O=C(N/N=C/c1ccccc1)c1cccc2nc3ccccc3nc12 | 31.4 µM | > 100 µM | > 100 µM | > 100 µM | > 100 µM | > 84 µM | > 100 µM | > 72.9 µM | > 100 µM | > 100 µM |  |  |  |  |  |  | 
CC1=C(C(=O)N[C@@H](CC(C)C)C(=O)O)N2C(=O)[C@@H](NC(=O)C(N)c3ccccc3)[C@H]2SC1 (stereo partly drawn) | > 100 µM | > 100 µM | > 100 µM | > 100 µM | > 100 µM | > 100 µM | > 100 µM | > 100 µM | > 100 µM | > 100 µM |  |  |  |  |  |  | 
